In brackets after ≈: the same amount, converted by molar mass.
Experiments:
MCF-7 cells = experiment: In vitro cytotoxicity, MTT assay, in MCF-7 cells; type: cell-based; conditions: Homo sapiens, MCF7, incubation for 72 h
Protocol: (§1) Cytotoxicity of pure PTX, PEG-g-hollow silica vesicles, and PTX loaded PEG-g-hollow silica vesicles was evaluated in MCF-7 cell lines and U-87 MG cell lines. Viability of the cells was assessed by the standard thiazolyl blue [3-(4,5-dimethyliazolyl-2)-2,5-diphenyl tetrazolium bromide] (MTT) assay. This colorimetric assay allows determination of the number of viable cells through the metabolic activity of the cells.
(§2) The cancer cells were seeded in 96-well plates with a seeding density 10,000 cells/well and were cultured in DMEM supplemented with 10% FBS and 1% penicillin/streptomycin solution in an incubator at 37° C., 5% CO2, and 95% relative humidity. The cells were allowed to adhere to the well bottom upon overnight incubation. Then the medium was replaced with the sample solutions of different concentrations. Meanwhile, wells containing only cell culture medium were prepared as untreated controls. At the predetermined time, the medium containing samples was aspirated and the wells were washed with 1×PBS solution for two times to removed non-internalized sample. […] The absorbance intensity of the solution was then quantified spectrophotometrically using a microplate reader (TECAN SpectraFluor Plus) at 570 nm. […]
(§3) where Abssample was the absorbance for the cells treated with the samples, while Abscontrol was the absorbance for the untreated control cells. […]

U-87 MG cells = experiment: In vitro cytotoxicity, MTT assay, in U-87 MG cells; type: cell-based; conditions: Homo sapiens, incubation for 72 h
Protocol: as §1, §2, §3

[1] = Release profile of paclitaxel by dialysis in 1×PBS buffer at 37° C., HPLC; type: physicochemical; conditions: after 330 h, 1×PBS buffer solution
Protocol: In a typical process, 0.7 mg of paclitaxel loaded PEG-graft-hollow silica was dispersed in 3 ml of 1×PBS buffer solution under ultrasonication for 2 h at a temperature below 30° C. The solution was transferred into a dialysis tube with a molecular weight cutting of 10 000. The dialysis tube was placed into a conical flask containing 40 ml of 1×PBS buffer solution. The conical flask was kept in a water bath at 37° C. and was stirred at 100 rpm. The outside buffer solution was exchanged with a fresh buffer solution at a predetermined time interval to maintain a sink condition. The released paclitaxel was extracted from the drawn buffer solution using 4 ml of dichloromethane. After shaking and setting down, the dichloromethane solution was collected. After chloromethane was evaporated at room temperature, the solid reconstituted in 2 mL of acetonitrile/water (50:50; v/v) for HPLC measurement to determine PTX amounts.
To measure the release profile of free PTX, 2 mg of PTX was firstly dissolved in 4 mL methanol to get a solution of a concentration of 0.5 mg/mL. After ultrasonication for 40 min, 0.4 mL of the solution was taken out and was dried by evaporating methanol. The solid was dissolved in 3 mL of 1×PBS solution (pH 7.4), and the release profile was monitored.

[2] = Saturated solubility of PTX in methanol; type: physicochemical; conditions: organic solvent or mixture, saturated solution in methanol

CC(=O)O[C@H]1C(=O)[C@@]2(C)[C@H]([C@H](OC(=O)c3ccccc3)[C@]3(O)C[C@H](OC(=O)[C@H](O)[C@@H](NC(=O)c4ccccc4)c4ccccc4)C(C)=C1C3(C)C)[C@]1(OC(C)=O)CO[C@@H]1C[C@@H]2O [free PTX, paclitaxel]
IC50 (MCF-7 cells): 0.1 µg/mL (≈ 0.117 µM) | IC50 (U-87 MG cells): 0.073 µg/mL (≈ 0.0855 µM) | PTX released [1]: 5% | solubility [2]: 50 mg/mL (≈ 58600 µM)
